Like-named read-outs stand apart in the source and are kept apart here.
Target: T1, mouse Tas2r117 (Mus musculus, UniProt Q7M715)
T1 construct: expressed in transfected cells; host or cells: HEK293T-Gα16gust44
T1 sequence (Q7M715 1-330): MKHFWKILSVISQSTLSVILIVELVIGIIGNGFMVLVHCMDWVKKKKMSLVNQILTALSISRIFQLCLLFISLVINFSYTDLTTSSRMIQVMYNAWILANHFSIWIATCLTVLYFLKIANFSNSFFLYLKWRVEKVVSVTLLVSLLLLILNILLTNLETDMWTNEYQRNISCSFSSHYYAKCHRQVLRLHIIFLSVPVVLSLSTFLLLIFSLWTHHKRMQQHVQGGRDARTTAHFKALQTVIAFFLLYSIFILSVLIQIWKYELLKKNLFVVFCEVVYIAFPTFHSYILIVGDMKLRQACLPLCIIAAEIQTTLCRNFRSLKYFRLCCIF
Assay: Calcium imaging assay (FLIPR), HEK293T-Gα16gust44 cells transfected with mouse Tas2r117
Format: cell-based
Procedure: This set of bile acids was chosen because of their commercial availability in high purities, their diversity within the class of bile acids and their previous detection and quantitation in human blood. Stock solutions were prepared in DMSO.
As basal growth medium for the HEK293T-Gα16gust44 cell line[17],[59] served Dulbecco’s modified eagle medium (DMEM) (Thermo Fisher Scientific, Darmstadt, Germany) supplemented with 10 % fetal bovine serum (Sigma-Aldrich, Steinheim, Germany), 2 mM L-glutamine (Sigma-Aldrich, Steinheim, Germany), 100 units/ml penicillin (Sigma Aldrich, Steinheim, Germany) and 100 µg/ml streptomycin (Sigma Aldrich, Steinheim, Germany). Growth conditions were 37 °C, 5 % CO2 and saturated air-humidity[60].
HEK293T-Gα16gust44 cells were seeded on poly-D-lysine (10 µg/ml) coated 96-well plates to reach a confluence of 40-60 % the next day. For transient transfection 150 ng of plasmid DNA containing the receptor of interest and 0.3 µl lipofectamine 2000 (Thermo Fisher Scientific, Darmstadt, Germany) per well were used and transfection took place according to the manual of lipofectamine 2000. […] The empty vector DNA (mock) was transfected as negative control[14],[41].
Cells were loaded using the calcium-sensitive fluorescent dye Fluo-4-AM (Abcam, Cambridge, Great Britain) in the presence of 2.5 mM probenecid (Sigma-Aldrich, Steinheim, Germany) the day after transfection[13],[41]. 1 h after loading, cells were washed with C1 buffer using a BioTek Cell Washer, incubated in the dark for half an hour and washed again. For automated agonist application and measurement of fluorescence changes, a FLIPR^TETRA device (Molecular Devices, San José, United States) was used. Viability of cells was tested by application of 100 nM Somatostatin 14 (Bachem, Bubendorf, Switzerland)[42].
Measured data were negative control corrected by subtracting the signal of the mock-transfected cells and exported to Microsoft Excel using the FLIPR software ScreenWorks 4.2. In Microsoft Excel software, standardization of maximum fluorescence intensities to the basal fluorescence and normalization to the buffer-only control was done to calculate the relative fluorescence changes (ΔF/F).
Initial screening experiments performed in duplicate wells were confirmed by at least one replication and representative traces were selected for display. All dose-response relationships were determined by three independent experiments (biological replicates) performed in duplicates (technical replicates). Threshold concentrations, defined as lowest substance concentrations leading to statistically significant elevated fluorescence changes in receptor-transfected cells compared with empty vector-transfected cells, were determined using SigmaPlot with Student’s t-test to evaluate statistical significance (p < 0.01).

In the case of C[C@H](CCC(=O)O)[C@H]1CC[C@H]2[C@@H]3[C@H](O)C[C@@H]4C[C@H](O)CC[C@]4(C)[C@H]3C[C@H](O)[C@]12C [Cholic Acid, cholic acid], the EC50 is reported as 20.6 ± 5.1 µM, the RLU is reported as 487.07 RLU and the RLU (Time (s) 0, sheet Tas2r117, time trace) is reported as 0 RLU. For the same molecule, the RLU (Time (s) 2, sheet Tas2r117, time trace) was 4.604 RLU, the RLU (Time (s) 4, sheet Tas2r117, time trace) was 10.2904 RLU and the RLU (Time (s) 6, sheet Tas2r117, time trace) was -0.8806 RLU. It also gave an RLU (Time (s) 8, sheet Tas2r117, time trace) of 6.861 RLU, an RLU (Time (s) 12, sheet Tas2r117, time trace) of -14.1517 RLU and an RLU (Time (s) 14, sheet Tas2r117, time trace) of 7.665 RLU. It also gave an RLU (Time (s) 16, sheet Tas2r117, time trace) of -9.341 RLU, an RLU (Time (s) 18, sheet Tas2r117, time trace) of -12.0783 RLU and an RLU (Time (s) 18.797, sheet Tas2r117, time trace) of -24.6076 RLU. For the same molecule, the RLU (Time (s) 20.797, sheet Tas2r117, time trace) was -3.383 RLU, the RLU (Time (s) 22.797, sheet Tas2r117, time trace) was 39.9085 RLU and the RLU (Time (s) 24.797, sheet Tas2r117, time trace) was 65.6016 RLU. It also gave an RLU (Time (s) 26.797, sheet Tas2r117, time trace) of 75.6489 RLU, an RLU (Time (s) 28.797, sheet Tas2r117, time trace) of 128.888 RLU and an RLU (Time (s) 30.797, sheet Tas2r117, time trace) of 168.759 RLU. The RLU (Time (s) 32.797, sheet Tas2r117, time trace) was 221.976 RLU, the RLU (Time (s) 34.797, sheet Tas2r117, time trace) was 270.035 RLU and the RLU (Time (s) 36.797, sheet Tas2r117, time trace) was 288.662 RLU. It also gave an RLU (Time (s) 38.797, sheet Tas2r117, time trace) of 310.785 RLU, an RLU (Time (s) 40.797, sheet Tas2r117, time trace) of 342.959 RLU and an RLU (Time (s) 42.797, sheet Tas2r117, time trace) of 363.04 RLU. The RLU (Time (s) 44.797, sheet Tas2r117, time trace) was 380.411 RLU, the RLU (Time (s) 46.797, sheet Tas2r117, time trace) was 395.355 RLU and the RLU (Time (s) 48.797, sheet Tas2r117, time trace) was 398.151 RLU. For the same molecule, the RLU (Time (s) 50.797, sheet Tas2r117, time trace) was 423.224 RLU, the RLU (Time (s) 52.797, sheet Tas2r117, time trace) was 441.862 RLU and the RLU (Time (s) 54.797, sheet Tas2r117, time trace) was 446.522 RLU. It also gave an RLU (Time (s) 56.797, sheet Tas2r117, time trace) of 453.199 RLU, an RLU (Time (s) 58.797, sheet Tas2r117, time trace) of 444.318 RLU and an RLU (Time (s) 60.797, sheet Tas2r117, time trace) of 456.236 RLU. It also gave an RLU (Time (s) 62.797, sheet Tas2r117, time trace) of 461.012 RLU, an RLU (Time (s) 64.797, sheet Tas2r117, time trace) of 474.623 RLU and an RLU (Time (s) 66.797, sheet Tas2r117, time trace) of 445.559 RLU. For the same molecule, the RLU (Time (s) 70.797, sheet Tas2r117, time trace) was 480.113 RLU, the RLU (Time (s) 72.797, sheet Tas2r117, time trace) was 466.131 RLU and the RLU (Time (s) 74.797, sheet Tas2r117, time trace) was 473.506 RLU. It also gave an RLU (Time (s) 76.797, sheet Tas2r117, time trace) of 498.186 RLU, an RLU (Time (s) 78.797, sheet Tas2r117, time trace) of 506.034 RLU and an RLU (Time (s) 80.797, sheet Tas2r117, time trace) of 507.589 RLU. For the same molecule, the RLU (Time (s) 82.797, sheet Tas2r117, time trace) was 514.994 RLU, the RLU (Time (s) 84.797, sheet Tas2r117, time trace) was 484.679 RLU and the RLU (Time (s) 86.797, sheet Tas2r117, time trace) was 500.585 RLU. It also gave an RLU (Time (s) 88.797, sheet Tas2r117, time trace) of 496.095 RLU, an RLU (Time (s) 90.797, sheet Tas2r117, time trace) of 517.962 RLU and an RLU (Time (s) 92.797, sheet Tas2r117, time trace) of 513.104 RLU. The RLU (Time (s) 94.797, sheet Tas2r117, time trace) was 501.803 RLU, the RLU (Time (s) 96.797, sheet Tas2r117, time trace) was 495.693 RLU and the RLU (Time (s) 98.797, sheet Tas2r117, time trace) was 496.063 RLU. The RLU (Time (s) 100.797, sheet Tas2r117, time trace) was 476.828 RLU, the RLU (Time (s) 102.797, sheet Tas2r117, time trace) was 478.659 RLU and the RLU (Time (s) 104.797, sheet Tas2r117, time trace) was 493.353 RLU. The RLU (Time (s) 106.797, sheet Tas2r117, time trace) was 481.214 RLU, the RLU (Time (s) 108.797, sheet Tas2r117, time trace) was 477.549 RLU and the RLU (Time (s) 110.797, sheet Tas2r117, time trace) was 489.03 RLU. For the same molecule, the RLU (Time (s) 112.797, sheet Tas2r117, time trace) was 467.178 RLU, the RLU (Time (s) 114.797, sheet Tas2r117, time trace) was 460.468 RLU and the RLU (Time (s) 116.797, sheet Tas2r117, time trace) was 475.775 RLU. For the same molecule, the RLU (Time (s) 118.797, sheet Tas2r117, time trace) was 475.734 RLU, the RLU (Time (s) 120.797, sheet Tas2r117, time trace) was 478.85 RLU and the RLU (Time (s) 122.797, sheet Tas2r117, time trace) was 455.77 RLU. The RLU (Time (s) 124.797, sheet Tas2r117, time trace) was 448.646 RLU, the RLU (Time (s) 126.797, sheet Tas2r117, time trace) was 473.935 RLU and the RLU (Time (s) 128.797, sheet Tas2r117, time trace) was 443.919 RLU. It also gave an RLU (Time (s) 130.797, sheet Tas2r117, time trace) of 439.491 RLU, an RLU (Time (s) 132.797, sheet Tas2r117, time trace) of 446.634 RLU and an RLU (Time (s) 134.797, sheet Tas2r117, time trace) of 438.919 RLU. For the same molecule, the RLU (Time (s) 136.797, sheet Tas2r117, time trace) was 440.652 RLU, the RLU (Time (s) 137.562, sheet Tas2r117, time trace) was 432.872 RLU and the RLU (Time (s) 143.578, sheet Tas2r117, time trace) was 412.03 RLU. For the same molecule, the RLU (Time (s) 149.578, sheet Tas2r117, time trace) was 376.064 RLU, the RLU (Time (s) 155.578, sheet Tas2r117, time trace) was 372.116 RLU and the RLU (Time (s) 161.578, sheet Tas2r117, time trace) was 346.14 RLU. It also gave an RLU (Time (s) 167.578, sheet Tas2r117, time trace) of 348.952 RLU, an RLU (Time (s) 173.578, sheet Tas2r117, time trace) of 334.535 RLU and an RLU (Time (s) 179.578, sheet Tas2r117, time trace) of 329.157 RLU. For the same molecule, the RLU (Time (s) 191.578, sheet Tas2r117, time trace) was 289.619 RLU, the RLU (Time (s) 197.578, sheet Tas2r117, time trace) was 289.013 RLU and the RLU (Time (s) 209.578, sheet Tas2r117, time trace) was 239.803 RLU. The RLU (Time (s) 221.578, sheet Tas2r117, time trace) was 142.758 RLU, the RLU (Time (s) 233.578, sheet Tas2r117, time trace) was 144.622 RLU and the RLU (Time (s) 239.578, sheet Tas2r117, time trace) was 165.061 RLU. It also gave an RLU (Time (s) 245.578, sheet Tas2r117, time trace) of 139.32 RLU, an RLU (Time (s) 293.578, sheet Tas2r117, time trace) of 116.805 RLU and an RLU (Time (s) 299.578, sheet Tas2r117, time trace) of 113.227 RLU. The RLU (Time (s) 305.578, sheet Tas2r117, time trace) was 94.7752 RLU, the RLU (Time (s) 311.578, sheet Tas2r117, time trace) was 118.792 RLU and the RLU (Time (s) 317.578, sheet Tas2r117, time trace) was 98.6072 RLU. For the same molecule, the RLU (Time (s) 323.578, sheet Tas2r117, time trace) was 115.27 RLU, the RLU (Time (s) 329.578, sheet Tas2r117, time trace) was 87.0157 RLU and the RLU (Time (s) 335.578, sheet Tas2r117, time trace) was 73.721 RLU. It also gave an RLU (Time (s) 341.578, sheet Tas2r117, time trace) of 98.5271 RLU, an RLU (Time (s) 347.578, sheet Tas2r117, time trace) of 75.5864 RLU and an RLU (Time (s) 353.578, sheet Tas2r117, time trace) of 82.9151 RLU. For the same molecule, the RLU (Time (s) 359.578, sheet Tas2r117, time trace) was 69.2265 RLU and the “Activation threshold concentration Tas2r117” value (p < 0.01 vs empty vector) was 10 µM.
